Where two headings read alike, the source gives them in different places.
Tests used:
[1] = tested on: RPE-Neo or RPE-MYC or RPE-MYC expressing an EGFP-Histone 2B fusion protein; experiment: Phenotypic screening assay (arrest in mitosis or change in DNA content, IN-Cell Analyzer); assay type: cell-based; conditions: compounds at 20 nM to 20 μM, analysed 24, 48 or 72 hours after initiation of treatment
Procedure: (§1) Screening was conducted as described before (Li et al. 2019). Briefly, RPE-Neo or RPE-MYC or RPE-MYC expressing an EGFP-Histone 2B fusion protein were passaged as batches of 96-well plates, 18-24 hours before exposure to the chemical compounds of the present disclosure at concentrations from 20 nM to 20 μM. At 24, 48 or 72 hours after initiation of treatment, cells were analyzed for either an arrest in mitosis or a change in DNA content by GE 1N-Cell Analyzer 2000. MTT assays of cellular proliferation were performed as previously described (Li et al. 2019).
(§2) As set forth in table 2 below, an values of greater than or equal to 1 nM and less than or equal to 1.0 μM is marked “A”; a value greater than 1.00 μM and less than or equal to 10.0 μM is marked “B”; a value greater than 10.0 μM and less than or equal to 30.0 μM is marked “C”; and a value greater than 30.0 μM and less than 1000 μM is marked “D.”

RPE-Neo or RPE-MYC cells = experiment: MTT assay of cellular proliferation; assay type: cell-based; conditions: compounds at 20 nM to 20 μM; read-out: Min. Effective conc. for Proliferative arrest (>50%)
Procedure: Human cancer cell lines were obtained from ATCC and cultured in DMEM (Gibco, Cleveland. TN, USA) supplemented with 5% fetal bovine serum (Gibco), penicillin (100 U/mL)-streptomycin (100 μg/mL) (Gibco, Cat. No. 15140-122), 2 mM L-glutamine (Gibco, 200 mM solution, Cat. No. 25030081), and 1 mM sodium pyruvate (Gibco, 100 mM solution, Cat. No. 11360070) at 37° C. in a humidified incubator that was maintained at 5% CO2.
as §1, §2

[2] = read-out: Min. Effective conc. for Along with Cell Death
[3] = read-out: Min. Effective conc. for Mitotic Arrest (>5%)
[4] = read-out: Min. Effective conc. for Polyploidy (≥5%)

| Structure (SMILES) | minimal effective concentration [1, 2] [µM] | minimal effective concentration [1, 3] [µM] | minimal effective concentration [1, 4] [µM] | minimal effective concentration (RPE-Neo or RPE-MYC cells) [µM] |
| --- | --- | --- | --- | --- |
| COc1ccc(CN2C(=O)CC(c3nnc(C4CC4)o3)=C(Br)c3ccccc32)cc1F [Compound 20-25, 5-bromo-4-(5-cyclopropyl-1,3,4-oxadiazol-2-yl)-1-(3-fluoro-4-methoxybenzyl)-1,3-dihydro-2H-benzo[b]azepin-2-one] | 0.001 to 1 | 0.001 to 1 | 0.001 to 1 | 0.001 to 1 |
| Cc1cc(F)c(CN2C(=O)CC(c3nnc(C4CC4)o3)=C(Br)c3ccccc32)cc1F [Compound 20-28, 5-bromo-4-(5-cyclopropyl-1,3,4-oxadiazol-2-yl)-1-(2,5-difluoro-4-methylbenzyl)-1,3-dihydro-2H-benzo[b]azepin-2-one] | 0.001 to 1 | 0.001 to 1 | 0.001 to 1 | 0.001 to 1 |
| CC1=C(c2nnc(C3CC3)o2)CC(=O)N(Cc2ccc(C)c(F)c2)c2ccccc21 [Compound 20-30] | 0.001 to 1 | 0.001 to 1 | 0.001 to 1 | 0.001 to 1 |
| Cc1ccc(CN2C(=O)CC(c3nnc(N)s3)=C(Cl)c3ccccc32)cc1F [Compound 15-1, 4-(5-amino-1,3,4-thiadiazol-2-yl)-5-chloro-1-(3-fluoro-4-methylbenzyl)-1,3-dihydro-2H-benzo[b]azepin-2-one] | 0.001 to 1 | 0.001 to 1 | 0.001 to 1 | 0.001 to 1 |
| Cc1ccc(S(=O)(=O)N2CCC(c3nnc(C4CC4)o3)=C(Br)c3ccccc32)cc1 [Compound 34-4, 2-(5-bromo-1-tosyl-2,3-dihydro-1H-benzo[b]azepin-4-yl)-5-cyclopropyl-1,3,4-oxadiazole] | 1 to 10 | 1 to 10 | 1 to 10 | 1 to 10 |
| Cc1nnc(C2=C(Br)c3ccc(F)cc3N(Cc3ccc(C)c(F)c3)C(=O)C2)o1 [Compound 20-8, 5-bromo-8-fluoro-1-(3-fluoro-4-methylbenzyl)-4-(5-methyl-1,3,4-oxadiazol-2-yl)-1,3-dihydro-2H-benzo[b]azepin-2-one] | 0.001 to 1 | 0.001 to 1 | 0.001 to 1 | 0.001 to 1 |
| COc1ccc(S(=O)(=O)N2CCC(c3nnc(C4CC4)o3)=C(Br)c3ccccc32)cc1F [Compound 34-3, 2-(5-bromo-1-((3-fluoro-4-methoxyphenyl)sulfonyl)-2,3-dihydro-1H-benzo[b]azepin-4-yl)-5-cyclopropyl-1,3,4-oxadiazole] | 1 to 10 | 1 to 10 | 1 to 10 | 1 to 10 |
| Cc1cnc(C2=C(Br)c3ccccc3N(Cc3ccc(C)c(F)c3)C(=O)C2)o1 [Compound 23-1, 5-bromo-1-(3-fluoro-4-methylbenzyl)-4-(5-methyloxazol-2-yl)-1,3-dihydro-2H-benzo[b]azepin-2-one] | 0.001 to 1 | 0.001 to 1 | 0.001 to 1 | 0.001 to 1 |
| Cc1ccc(CN2C(=O)CC(c3nnc(C4CC4)o3)=C(Br)c3cc(F)ccc32)cc1F [Compound 20-17, 5-bromo-4-(5-cyclopropyl-1,3,4-oxadiazol-2-yl)-7-fluoro-1-(3-fluoro-4-methylbenzyl)-1,3-dihydro-2H-benzo[b]azepin-2-one] | 0.001 to 1 | 0.001 to 1 | 0.001 to 1 | 0.001 to 1 |
| Cc1ccc(CN2C(=O)CC(CN3CCCC3)=C(Br)c3ccccc32)cc1F [Compound 45, 5-bromo-1-(3-fluoro-4-methylbenzyl)-4-(pyrrolidin-1-ylmethyl)-1,3-dihydro-2H-benzo[b]azepin-2-one] | 1 to 10 | 1 to 10 | 1 to 10 | 1 to 10 |
| Cc1ccc2c(c1)N(Cc1ccc(C)c(F)c1)C(=O)CC(c1nnc(C)o1)=C2Br [Compound 20-13, 5-bromo-1-(3-fluoro-4-methylbenzyl)-8-methyl-4-(5-methyl-1,3,4-oxadiazol-2-yl)-1,3-dihydro-2H-benzo[b]azepin-2-one] | 0.001 to 1 | 0.001 to 1 | 0.001 to 1 | 0.001 to 1 |
| C#CC1=C(c2nnc(C3CC3)o2)CC(=O)N(Cc2ccc(C)c(F)c2)c2ccccc21 [Compound 20-32, 4-(5-cyclopropyl-1,3,4-oxadiazol-2-yl)-5-ethynyl-1-(3-fluoro-4-methylbenzyl)-1,3-dihydro-2H-benzo[b]azepin-2-one] | 0.001 to 1 | 0.001 to 1 | 0.001 to 1 | 0.001 to 1 |
| Cc1nnc(C2=C(Br)c3ccc(Cl)cc3N(Cc3ccc(C)c(F)c3)C(=O)C2)o1 [Compound 20-10, 5-bromo-8-chloro-1-(3-fluoro-4-methylbenzyl)-4-(5-methyl-1,3,4-oxadiazol-2-yl)-1,3-dihydro-2H-benzo[b]azepin-2-one] | 0.001 to 1 | 0.001 to 1 | 0.001 to 1 | 0.001 to 1 |
| Cc1ccc(CN2C(=O)CC(c3cnco3)=C(Br)c3ccccc32)cc1F [Compound 8-2, 5-bromo-1-(3-fluoro-4-methylbenzyl)-4-(oxazol-5-yl)-1,3-dihydro-2H-benzo[b]azepin-2-one] | 0.001 to 1 | 0.001 to 1 | 0.001 to 1 | 0.001 to 1 |
| COC1=C(CO)CC(=O)N(Cc2ccc(C)c(F)c2)c2ccccc21 [Compound 27-1, 1-(3-fluoro-4-methylbenzyl)-4-(hydroxymethyl)-5-methoxy-1,3-dihydro-2H-benzo[b]azepin-2-one] | 30 to 1000 | 30 to 1000 | 30 to 1000 | 30 to 1000 |
| Cc1ccc(CN2C(=O)CC(c3nnc(C4CC4)o3)=C(Br)c3cccc(F)c32)cc1F [Compound 20-15, 5-bromo-4-(5-cyclopropyl-1,3,4-oxadiazol-2-yl)-9-fluoro-1-(3-fluoro-4-methylbenzyl)-1,3-dihydro-2H-benzo[b]azepin-2-one] | 0.001 to 1 | 0.001 to 1 | 0.001 to 1 | 0.001 to 1 |
| Cc1ccc(CN2C(=O)CC(c3cnco3)=C(Br)c3ccc(O)cc32)cc1F [Compound 8-10, 5-bromo-1-(3-fluoro-4-methylbenzyl)-8-hydroxy-4-(oxazol-5-yl)-1,3-dihydro-2H-benzo[b]azepin-2-one] | 0.001 to 1 | 0.001 to 1 | 0.001 to 1 | 0.001 to 1 |
| COc1ccc2c(c1)N(Cc1ccc(C)c(F)c1)C(=O)CC(c1nnc(C3CC3)o1)=C2Br [Compound 20-4, 5-bromo-4-(5-cyclopropyl-1,3,4-oxadiazol-2-yl)-1-(3-fluoro-4-methylbenzyl)-8-methoxy-1,3-dihydro-2H-benzo[b]azepin-2-one] | 0.001 to 1 | 0.001 to 1 | 0.001 to 1 | 0.001 to 1 |
| Cc1ccc(CN2C(=O)CC(c3ccon3)=C(Cl)c3ccccc32)cc1F [Compound 13-1, 5-chloro-1-(3-fluoro-4-methylbenzyl)-4-(isoxazol-3-yl)-1,3-dihydro-2H-benzo[b]azepin-2-one] | 0.001 to 1 | 0.001 to 1 | 0.001 to 1 | 0.001 to 1 |
| Cc1ccc(CN2C(=O)CC(COC3CCOCC3)=C(Br)c3ccccc32)cc1F [Compound 44-2, 5-bromo-1-(3-fluoro-4-methylbenzyl)-4-(((tetrahydro-2H-pyran-4-yl)oxy)methyl)-1,3-dihydro-2H-benzo[b]azepin-2-one] | 1 to 10 | 1 to 10 | 1 to 10 | 1 to 10 |
| Cc1ccc2c(c1)N(Cc1ccc(C)c(F)c1)C(=O)CC(c1nnc(C3CC3)o1)=C2Br [Compound 20-12, 5-bromo-4-(5-cyclopropyl-1,3,4-oxadiazol-2-yl)-1-(3-fluoro-4-methylbenzyl)-8-methyl-1,3-dihydro-2H-benzo[b]azepin-2-one] | 0.001 to 1 | 0.001 to 1 | 0.001 to 1 | 0.001 to 1 |
| COCCOc1ccc2c(c1)N(Cc1ccc(C)c(F)c1)C(=O)CC(c1cnco1)=C2Cl [Compound 8-9] | 0.001 to 1 | 0.001 to 1 | 0.001 to 1 | 0.001 to 1 |

Reference: US20250011289A1, “1H-BENZO[B]AZEPIN-2(3H)-ONE COMPOUNDS, COMPOSITIONS AND METHODS OF TREATING CANCER” (Chengdu Anticancer Bioscience, Ltd., priority 2021, published 2025)
